ChEMBL document CHEMBL1144960, “Studies on the synthesis and anti-Osteoporosis of estrogen-GHRPs linkers” (2003)

Tests used:
Type in all cases: functional
Rattus norvegicus [1] = test: Activity tested for the content of calcium in serum of rat when 18 ug/kg of compound was administered intramuscularly when compared to prednisone
Rattus norvegicus [2] = species on record: Rattus norvegicus; test: Percentage content of phosphor in femur tested in the compound using male ICR rats
Rattus norvegicus [3] = test: Weight of rat body tested after intramuscular administration of 18 ug/kg of compound when compared to vehicle
Rattus norvegicus [4] = test: Weight of rat femur tested after intramuscular administration of 18 ug/kg of compound when compared to vehicle
Rattus norvegicus [5] = test: Weight of rat femur ash tested after intramuscular administration of 18 ug/kg of compound when compared to vehicle
Rattus norvegicus [6] = test: Activity tested for the content of calcium in serum of rat when 18 ug/kg of compound was administered intramuscularly when compared to vehicle
Rattus norvegicus [7] = species on record: Rattus norvegicus; test: Percentage content of calcium in femur tested in the compound using male ICR rats when compared to vehicle
Rattus norvegicus [8] = test: Activity of alkaline phosphatase (ALP) tested in serum of rat when 18 ug/kg of compound was administered intramuscularly
Rattus norvegicus [9] = test: Weight of rat body tested after intramuscular administration of 18 ug/kg of compound when compared to prednisone

Structure (SMILES): CC(C)C[C@H](NC(=O)[C@H](Cc1ccccc1)NC(=O)CNC(=O)CNC(=O)[C@H](Cc1ccc(O)cc1)NC(=O)CCC(=O)O[C@H]1CC[C@H]2[C@@H]3CCc4cc(O)ccc4[C@H]3CC[C@]12C)C(N)=O
- Ca2+ (Rattus norvegicus [1]): 1.92 mM

Structure (SMILES): C[C@]12CC[C@@H]3c4ccc(O)cc4CCC3[C@@H]1CCC2=O (single isomer, unassigned) [ESTRONE]
- Phosphor (Rattus norvegicus [2]): 22.02%
- Weight (Rattus norvegicus [3]): 33.62 g
- Weight (Rattus norvegicus [4]): 33.93 mg
- Weight (Rattus norvegicus [5]): 21.69 mg
- Ca2+ (Rattus norvegicus [6]): 2.28 mM
- Ca2+ (Rattus norvegicus [7]): 40.83%
- Activity (Rattus norvegicus [8]): 45.84

Structure (SMILES): C[C@]12CC[C@@H]3c4ccc(O)cc4CC[C@H]3[C@@H]1CCC2O (single isomer, unassigned) [ESTRADIOL]
- Weight (Rattus norvegicus [9]): 35.39 g
- Phosphor (Rattus norvegicus [2]): 21.85%
- Weight (Rattus norvegicus [4]): 35.09 mg
- Ca2+ (Rattus norvegicus [1]): 2.13 mM
- Weight (Rattus norvegicus [5]): 22.82 mg
- Ca2+ (Rattus norvegicus [7]): 42.11%
- Activity (Rattus norvegicus [8]): 44.1

Structure (SMILES): CC(C)C[C@H](NC(=O)[C@H](Cc1ccccc1)NC(=O)CNC(=O)CNC(=O)[C@@H](N)Cc1ccc(O)cc1)C(N)=O [[LEU5]ENKEPHALIN]
- Phosphor (Rattus norvegicus [2]): 22.35%
- Weight (Rattus norvegicus [3]): 34.16 g
- Ca2+ (Rattus norvegicus [1]): 2.01 mM
- Weight (Rattus norvegicus [5]): 22.8 mg
- Activity (Rattus norvegicus [8]): 34.22

Structure (SMILES): CC(C)C[C@H](NC(=O)[C@H](Cc1ccccc1)NC(=O)CNC(=O)CNC(=O)[C@@H](N)Cc1ccc(O)cc1)C(=O)O [ENKEPHALIN]
- Phosphor (Rattus norvegicus [2]): 22.27%
- Weight (Rattus norvegicus [3]): 33.29 g
- Weight (Rattus norvegicus [5]): 21.74 mg
- Activity (Rattus norvegicus [8]): 37.7

Structure (SMILES): C[C@]12C=CC(=O)C=C1CC[C@@H]1[C@@H]2C(=O)C[C@@]2(C)[C@H]1CC[C@]2(O)C(=O)CO [PREDNISONE]
- Phosphor (Rattus norvegicus [2]): 20.87%
- Weight (Rattus norvegicus [3]): 31.89 g
- Weight (Rattus norvegicus [4]): 33.39 mg
- Weight (Rattus norvegicus [5]): 21.26 mg
- Ca2+ (Rattus norvegicus [6]): 2.42 mM
- Ca2+ (Rattus norvegicus [7]): 39.54%
- Activity (Rattus norvegicus [8]): 48.7
